Columns and labels:
[1] = tested on: DND-41 (acute lymphoblastic leukemia); test: MTS proliferation assay, DND-41; conditions: Homo sapiens, DND41, 72 h, read-out: Anti-Proliferative Activity (IC50) DND-41
[2] = tested on: herpes simplex virus-1 (HSV-1 KOS); test: Antiviral CPE reduction assay, HSV-1 KOS in HEL299 cells; format: cell-based; conditions: Human alphaherpesvirus 1, HEL 299, MTS, mean ± SD, no unit printed on the supplement page (Table 2 of the same screen is in µM)
[3] = tested on: Zika virus (ZikV mr766); test: Antiviral CPE reduction assay, Zika virus mr766 in VeroE6 cells; format: cell-based; conditions: Zika virus, Vero C1008, MTS, mean ± SD, no unit printed on the supplement page (Table 2 of the same screen is in µM)
[4] = tested on: influenza A/H3N2 (A/HK/7/87); test: Antiviral CPE reduction assay, influenza A/H3N2 in MDCK cells; format: cell-based, influenza A virus; conditions: Influenza A virus, H3N2; MDCK cells; CPE reduction, MTS; mean ± SD of two or three independent experiments; read-out: Antiviral Activity (EC50) Influenza H3N2
[5] = tested on: influenza B (B/Ned/537/05); test: Antiviral CPE reduction assay, influenza B in MDCK cells; format: cell-based, influenza B virus; conditions: Influenza B virus, MDCK, read-out: Antiviral Activity (EC50) Influenza B
[6] = in vitro; conditions: human
[7] = tested on: HCoV-OC43; test: Antiviral CPE reduction assay, HCoV-OC43 in HEL299 cells; format: cell-based, human coronavirus OC43; conditions: Betacoronavirus 1, OC43, HEL 299, MTS, mean ± SD of two or three independent experiments
[8] = tested on: yellow fever virus (YFV 17D); test: microbe, parasite or virus in culture; format: cell-based; conditions: Yellow fever virus, Vero C1008, read-out: Antiviral activity (EC50) YFV 17D
[9] = in vitro; conditions: African green monkey
[10] = tested on: HCT-116 (colorectal carcinoma); test: MTS proliferation assay, HCT-116; conditions: Homo sapiens, HCT-116, 72 h, read-out: Anti-Proliferative Activity (IC50) HCT-116
[11] = tested on: NCI-H460 (lung carcinoma); test: MTS proliferation assay, NCI-H460; conditions: Homo sapiens, NCI-H460, 72 h, read-out: Anti-Proliferative Activity (IC50) NCI-H460
[12] = tested on: K-562 (chronic myeloid leukemia); test: MTS proliferation assay, K-562; conditions: Homo sapiens, K562, 72 h, read-out: Anti-Proliferative Activity (IC50) K-562
[13] = tested on: LN-229 (glioblastoma); test: MTS proliferation assay, LN-229; conditions: Homo sapiens, LN-229, 72 h, read-out: Anti-Proliferative Activity (IC50) LN-229
[14] = tested on: Z-138 (non-Hodgkin lymphoma); test: MTS proliferation assay, Z-138; conditions: Homo sapiens, Z-138, 72 h, read-out: Anti-Proliferative Activity (IC50) Z-138
[15] = tested on: HL-60 (acute myeloid leukemia); test: MTS proliferation assay, HL-60; conditions: Homo sapiens, HL-60, 72 h, read-out: Anti-Proliferative Activity (IC50) HL-60
[16] = tested on: HCoV-NL63; test: Antiviral CPE reduction assay, HCoV-NL63 in Hep3B cells; format: cell-based, human coronavirus NL63; conditions: Human coronavirus NL63, MTS, mean ± SD of two or three independent experiments
[17] = tested on: HCoV-229E; test: Antiviral CPE reduction assay, HCoV-229E in HEL299 cells; format: cell-based, human coronavirus 229E; conditions: Human coronavirus 229E, HEL 299, MTS, mean ± SD of two or three independent experiments
[18] = in vitro; conditions: human; remark: listed apart in the source
[19] = tested on: influenza A/H1N1 (A/Ned/378/05); test: Antiviral CPE reduction assay, influenza A/H1N1 in MDCK cells; format: cell-based, influenza A virus; conditions: Influenza A virus, H1N1; MDCK cells; CPE reduction, MTS; mean ± SD of two or three independent experiments; read-out: Antiviral Activity (EC50) Influenza H1N1
[20] = in vitro; conditions: dog
[21] = in vitro; conditions: human; remark: listed apart in the source
[22] = tested on: respiratory syncytial virus A (RSV A Long); test: Antiviral CPE reduction assay, RSV A Long in Hep2 cells; format: cell-based; conditions: human respiratory syncytial virus, HEp-2; Hep2 cells; CPE reduction, MTS; mean ± SD of two or three independent experiments; read-out: Antiviral Activity (EC50) RSV A Long
[23] = tested on: Capan-1 (pancreatic adenocarcinoma); test: MTS proliferation assay, Capan-1; conditions: Homo sapiens, CAPAN-1, 72 h, read-out: Anti-Proliferative Activity (IC50) Capan-1

Row | SMILES | IC50 [1] [µM] | EC50 [2] [µM] | EC50 [3] [µM] | EC50 [4] [µM] | EC50 [5] [µM] | CC50 [6] [µM] | EC50 [7] [µM] | EC50 [8] [µM] | CC50 [9] [µM] | IC50 [10] [µM] | IC50 [11] [µM] | melting point [°C] | IC50 [12] [µM] | IC50 [13] [µM] | IC50 [14] [µM] | IC50 [15] [µM] | EC50 [16] [µM] | EC50 [17] [µM] | CC50 [18] [µM] | EC50 [19] [µM] | further results
1 | CCN(CC)CCNc1ncc2c(Nc3cccc4c3CCCC4)ncnc2n1 [Compound 7b, N^2-[2-(Diethylamino)ethyl]-N^5-(5,6,7,8-tetrahydronaphthalen-1-yl)pyrimido[4,5-d]pyrimidine-2,5-diamine] | 67.1 ± 4.7 | > 50 | > 50 | > 50 | > 50 | > 50 | 34.7 ± 16.7 | > 50 | > 50 | > 100 | > 100 | 181.3 | > 100 | > 100 | 62.6 ± 0.8 | > 100 | > 50 | 11 ± 2.7 | > 50 | > 50 | CC50 [20]: > 50 µM; CC50 [21]: > 50 µM; EC50 [22]: > 50 µM; IC50 [23]: > 100 µM
2 | CN(C)CCNc1ncc2c(Nc3cccc4c3CCC4)ncnc2n1 [Compound 7e, N^5-(2,3-dihydro-1H-inden-4-yl)-N^2-(2-(dimethylamino)ethyl)pyrimido[4,5-d]pyrimidine-2,5-diamine] | > 100 | > 50 | > 50 | > 50 | > 50 | > 50 | > 50 | > 50 | > 50 | > 100 | > 100 | 180.9 | > 100 | > 100 | > 100 | > 100 | > 50 | 20.6 ± 0.3 | > 50 | > 50 | CC50 [20]: > 50 µM; CC50 [21]: > 50 µM; EC50 [22]: > 50 µM; IC50 [23]: > 100 µM
3 | CCN(CC)CCNc1ncc2c(Nc3cccc4c3CCC4)ncnc2n1 [Compound 7f, N^5-(2,3-dihydro-1H-inden-4-yl)-N^2-[2-(diethylamino)ethyl]pyrimido[4,5-d]pyrimidine-2,5-diamine] | > 100 | > 50 | > 50 | > 50 | > 50 | > 50 | 37.3 ± 15.1 | > 50 | > 50 | > 100 | > 100 | 172.9 | > 100 | > 100 | > 100 | > 100 | > 50 | 3.9 ± 2.9 | > 50 | > 50 | CC50 [20]: > 50 µM; CC50 [21]: > 50 µM; EC50 [22]: > 50 µM; IC50 [23]: > 100 µM
4 | c1cc2c(c(Nc3ncnc4nc(NC5CC5)ncc34)c1)CCC2 [Compound 7g, N^2-cyclopropyl-N^5-(2,3-dihydro-1H-inden-4-yl)pyrimido[4,5-d]pyrimidine-2,5-diamine] | > 100 | > 50 | > 50 | > 50 | > 50 | > 50 | > 50 | > 50 | > 50 | > 100 | > 100 | 290 | > 100 | > 100 | > 100 | > 100 | > 50 | ≥ 30.5 | > 50 | > 50 | CC50 [20]: > 50 µM; CC50 [21]: > 50 µM; EC50 [22]: > 50 µM; IC50 [23]: > 100 µM
5 | C#Cc1cccc(Nc2ncnc3nc(NC4CC4)ncc23)c1 [Compound 7j, N^2-cyclopropyl-N^5-(3-ethynylphenyl)pyrimido[4,5-d]pyrimidine-2,5-diamine] | > 100 | > 50 | > 50 | > 50 | > 50 | > 50 | > 50 | > 50 | > 50 | > 100 | > 100 | 296 | > 100 | > 100 | > 100 | > 100 | > 50 | > 50 | > 50 | > 50 | CC50 [20]: > 50 µM; CC50 [21]: > 50 µM; EC50 [22]: > 50 µM; IC50 [23]: > 100 µM
6 | CCN(CC)CCNc1ncc2c(Nc3cccnc3)ncnc2n1 [Compound 7l, N^2-[2-(diethylamino)ethyl]-N^5-(pyridin-3-yl)pyrimido[4,5-d]pyrimidine-2,5-diamine] | > 100 | > 50 | > 50 | > 50 | > 50 | > 50 | > 50 | > 50 | > 50 | > 100 | > 100 | 220 to 224 | > 100 | > 100 | > 100 | > 100 | > 50 | > 50 | > 50 | > 50 | CC50 [20]: > 50 µM; CC50 [21]: > 50 µM; EC50 [22]: > 50 µM; IC50 [23]: > 100 µM

— PMC11643962, “Exploring 4,7-Disubstituted Pyrimido[4,5-d]pyrimidines as Antiviral and Anticancer Agents” (Molecules, 2024)
